Laboratory results from patent US10329299B2, “Heterocyclic compounds and uses thereof” (Infinity Pharmaceuticals, Inc., priority 2013, dated 2019).

Legend:
[1] = target: γ isoform of human Class I PI3 kinases (Homo sapiens (Human), UniProt P48736); experiment: PI3-Kinase Promega ADP-Glo Max assay, γ isoform; type: biochemical; conditions: for PI3K δ/PI3K γ IC50 (selectivity): ratio of PI3K δ IC50 to PI3K γ IC50
[2] = target: PI3K-γ (Mus musculus (Mouse), UniProt Q9JHG7); experiment: PI3K-γ selective cellular assay: phospho-AKT in C5a stimulated RAW264.7 macrophages; type: cell-based; conditions: ratio of RAJI p110 δ assay IC50 to Raw264.7 p110 γ assay IC50
Chain of PI3K-γ (Q9JHG7 whole entry, canonical isoform): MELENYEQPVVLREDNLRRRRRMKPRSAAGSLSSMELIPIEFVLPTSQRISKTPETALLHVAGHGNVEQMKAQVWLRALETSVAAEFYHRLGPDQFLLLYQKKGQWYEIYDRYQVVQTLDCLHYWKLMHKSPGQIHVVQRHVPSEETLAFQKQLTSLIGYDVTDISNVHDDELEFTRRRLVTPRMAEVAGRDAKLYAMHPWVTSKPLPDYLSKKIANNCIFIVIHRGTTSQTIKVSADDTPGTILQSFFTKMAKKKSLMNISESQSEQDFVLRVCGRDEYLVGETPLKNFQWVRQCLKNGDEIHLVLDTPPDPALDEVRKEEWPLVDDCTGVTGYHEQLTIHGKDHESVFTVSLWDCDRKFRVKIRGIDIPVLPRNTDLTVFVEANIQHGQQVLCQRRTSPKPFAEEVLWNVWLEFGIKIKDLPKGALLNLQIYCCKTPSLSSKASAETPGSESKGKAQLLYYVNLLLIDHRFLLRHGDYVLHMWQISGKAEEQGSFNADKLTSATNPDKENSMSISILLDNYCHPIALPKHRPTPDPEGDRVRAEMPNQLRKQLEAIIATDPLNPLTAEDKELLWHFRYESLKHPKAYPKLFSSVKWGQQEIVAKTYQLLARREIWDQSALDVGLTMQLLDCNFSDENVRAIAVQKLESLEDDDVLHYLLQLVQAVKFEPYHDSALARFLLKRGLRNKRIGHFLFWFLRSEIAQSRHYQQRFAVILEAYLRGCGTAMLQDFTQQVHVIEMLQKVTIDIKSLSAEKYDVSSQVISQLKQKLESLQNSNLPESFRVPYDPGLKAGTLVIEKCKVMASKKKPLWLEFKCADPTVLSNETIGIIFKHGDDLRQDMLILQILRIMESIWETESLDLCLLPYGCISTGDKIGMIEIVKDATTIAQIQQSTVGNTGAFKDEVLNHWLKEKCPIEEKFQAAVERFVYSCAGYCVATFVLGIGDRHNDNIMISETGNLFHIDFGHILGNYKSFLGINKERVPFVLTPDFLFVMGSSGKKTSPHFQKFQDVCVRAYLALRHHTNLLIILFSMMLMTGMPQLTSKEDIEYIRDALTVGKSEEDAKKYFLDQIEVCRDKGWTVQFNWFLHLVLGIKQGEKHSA

[3] = target: β isoform of human Class I PI3 kinases (Homo sapiens (Human), UniProt P42338); experiment: PI3-Kinase Promega ADP-Glo Max assay, β isoform; type: biochemical; conditions: read-out: PI3K β IC50
Chain of β isoform of human Class I PI3 kinases (P42338 whole entry, canonical isoform): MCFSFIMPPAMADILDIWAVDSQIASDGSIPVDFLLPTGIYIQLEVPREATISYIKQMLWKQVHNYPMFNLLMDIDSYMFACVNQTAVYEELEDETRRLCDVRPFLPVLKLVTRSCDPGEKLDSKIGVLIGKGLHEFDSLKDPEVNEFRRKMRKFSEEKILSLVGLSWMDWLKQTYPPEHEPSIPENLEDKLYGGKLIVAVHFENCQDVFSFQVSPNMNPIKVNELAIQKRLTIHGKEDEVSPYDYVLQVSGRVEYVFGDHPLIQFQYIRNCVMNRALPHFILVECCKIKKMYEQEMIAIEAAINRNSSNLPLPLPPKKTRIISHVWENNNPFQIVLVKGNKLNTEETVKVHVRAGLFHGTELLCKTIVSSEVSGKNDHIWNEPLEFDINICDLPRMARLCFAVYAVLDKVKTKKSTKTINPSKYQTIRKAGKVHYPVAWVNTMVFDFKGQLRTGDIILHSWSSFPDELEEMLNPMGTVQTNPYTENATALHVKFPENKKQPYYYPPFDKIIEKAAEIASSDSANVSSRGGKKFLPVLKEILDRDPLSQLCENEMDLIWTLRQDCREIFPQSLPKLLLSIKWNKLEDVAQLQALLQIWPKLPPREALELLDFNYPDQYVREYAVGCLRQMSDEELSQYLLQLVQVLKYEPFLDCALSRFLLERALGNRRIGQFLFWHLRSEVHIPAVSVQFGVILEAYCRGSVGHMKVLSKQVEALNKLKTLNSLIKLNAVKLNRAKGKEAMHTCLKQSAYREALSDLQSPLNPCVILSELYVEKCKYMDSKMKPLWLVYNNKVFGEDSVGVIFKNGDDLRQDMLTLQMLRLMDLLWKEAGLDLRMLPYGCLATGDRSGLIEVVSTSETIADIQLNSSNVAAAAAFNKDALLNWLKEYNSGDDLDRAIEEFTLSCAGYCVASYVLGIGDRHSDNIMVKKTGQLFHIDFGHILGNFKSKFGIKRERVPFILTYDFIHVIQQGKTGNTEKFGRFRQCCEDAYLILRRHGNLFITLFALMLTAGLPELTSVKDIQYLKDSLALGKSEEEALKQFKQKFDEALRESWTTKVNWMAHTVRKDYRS
Chain of β isoform of human Class I PI3 kinases (P27986 whole entry partner, canonical isoform): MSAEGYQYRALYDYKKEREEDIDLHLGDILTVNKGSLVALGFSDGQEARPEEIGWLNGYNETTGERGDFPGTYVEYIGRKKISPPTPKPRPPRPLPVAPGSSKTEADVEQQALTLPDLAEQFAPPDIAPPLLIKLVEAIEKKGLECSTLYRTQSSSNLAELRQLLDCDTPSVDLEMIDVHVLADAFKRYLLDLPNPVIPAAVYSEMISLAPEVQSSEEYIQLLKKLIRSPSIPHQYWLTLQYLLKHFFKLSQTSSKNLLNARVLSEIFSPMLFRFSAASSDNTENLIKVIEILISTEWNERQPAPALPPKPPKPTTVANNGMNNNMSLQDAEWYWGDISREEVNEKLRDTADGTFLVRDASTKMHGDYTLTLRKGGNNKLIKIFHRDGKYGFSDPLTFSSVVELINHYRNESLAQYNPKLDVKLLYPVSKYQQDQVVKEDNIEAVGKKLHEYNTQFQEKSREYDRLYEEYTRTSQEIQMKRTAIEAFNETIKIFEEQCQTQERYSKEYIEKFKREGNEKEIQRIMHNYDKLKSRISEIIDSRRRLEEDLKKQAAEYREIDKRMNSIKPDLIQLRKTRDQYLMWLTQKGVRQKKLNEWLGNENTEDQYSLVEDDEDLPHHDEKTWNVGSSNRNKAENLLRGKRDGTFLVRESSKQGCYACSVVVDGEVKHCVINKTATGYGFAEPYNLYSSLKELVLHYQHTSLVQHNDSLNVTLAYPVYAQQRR

[4] = target: δ isoform of human Class I PI3 kinases (Homo sapiens (Human), UniProt O00329); experiment: PI3-Kinase Promega ADP-Glo Max assay, δ isoform; type: biochemical; conditions: read-out: PI3K δ IC50
[5] = target: α isoform of human Class I PI3 kinases (Homo sapiens (Human), UniProt P42336); experiment: PI3-Kinase Promega ADP-Glo Max assay, α isoform; type: biochemical; conditions: read-out: PI3K α IC50
Chain of α isoform of human Class I PI3 kinases (P42336 whole entry, canonical isoform): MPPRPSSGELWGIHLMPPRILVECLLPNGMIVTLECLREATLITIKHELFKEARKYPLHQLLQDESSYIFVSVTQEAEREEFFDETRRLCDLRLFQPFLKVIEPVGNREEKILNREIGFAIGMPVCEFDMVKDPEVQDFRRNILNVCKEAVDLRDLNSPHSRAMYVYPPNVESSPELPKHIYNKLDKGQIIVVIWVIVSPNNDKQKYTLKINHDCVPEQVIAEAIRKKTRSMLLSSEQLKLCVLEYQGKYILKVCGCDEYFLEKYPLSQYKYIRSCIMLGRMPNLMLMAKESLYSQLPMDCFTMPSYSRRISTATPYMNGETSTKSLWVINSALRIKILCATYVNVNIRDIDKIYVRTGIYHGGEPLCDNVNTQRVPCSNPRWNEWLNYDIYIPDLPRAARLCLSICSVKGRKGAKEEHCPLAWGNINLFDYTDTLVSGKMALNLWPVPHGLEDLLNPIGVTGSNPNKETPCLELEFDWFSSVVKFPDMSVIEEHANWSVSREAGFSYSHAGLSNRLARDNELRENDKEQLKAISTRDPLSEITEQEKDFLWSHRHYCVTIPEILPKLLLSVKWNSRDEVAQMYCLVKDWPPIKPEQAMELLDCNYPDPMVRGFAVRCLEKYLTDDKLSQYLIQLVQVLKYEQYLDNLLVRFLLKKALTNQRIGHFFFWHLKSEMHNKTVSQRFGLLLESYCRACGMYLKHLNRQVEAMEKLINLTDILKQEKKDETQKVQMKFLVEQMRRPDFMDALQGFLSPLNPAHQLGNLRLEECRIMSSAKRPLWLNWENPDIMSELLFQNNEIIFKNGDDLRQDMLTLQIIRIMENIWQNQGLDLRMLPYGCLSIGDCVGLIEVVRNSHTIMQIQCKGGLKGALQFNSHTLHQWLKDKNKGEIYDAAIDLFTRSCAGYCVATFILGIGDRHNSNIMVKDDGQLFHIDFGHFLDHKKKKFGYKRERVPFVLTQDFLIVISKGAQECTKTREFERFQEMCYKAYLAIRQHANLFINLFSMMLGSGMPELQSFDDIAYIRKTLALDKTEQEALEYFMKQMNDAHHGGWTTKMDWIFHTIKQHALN
Chain of α isoform of human Class I PI3 kinases (P27986 whole entry partner, canonical isoform): as the sequence (P27986 whole entry partner, canonical isoform) above

[6] = test system: PI3K/Akt/mTOR signaling; experiment: Kinase signaling in blood (phosflow); type: cell-based; conditions: unfractionated splenocytes or peripheral blood mononuclear cells stimulated with anti-CD3
Procedure: PI3K/Akt/mTOR signaling is measured in blood cells using the phosflow method (Methods Enzymol. (2007) 434:131-54). This method is by nature a single cell assay so that cellular heterogeneity can be detected rather than population averages. This allows concurrent distinction of signaling states in different populations defined by other markers. Phosflow is also highly quantitative. To test the effects of one or more compounds provided herein, unfractionated splenocytes, or peripheral blood mononuclear cells are stimulated with anti-CD3 to initiate T-cell receptor signaling. The cells are then fixed and stained for surface markers and intracellular phosphoproteins. […]
Similarly, aliquots of whole blood are incubated for 15 minutes with vehicle (e.g., 0.1% DMSO) or kinase inhibitors at various concentrations, before addition of stimuli to crosslink the T cell receptor (TCR) (anti-CD3 with secondary antibody) or the B cell receptor (BCR) using anti-kappa light chain antibody (Fab′2 fragments). […] The level of phosphorylation of kinase substrates such as Akt and S6 are then measured by incubating the fixed cells with labeled antibodies specific to the phosphorylated isoforms of these proteins. The population of cells are then analyzed by flow cytometry.

Chain of γ isoform of human Class I PI3 kinases (P48736 whole entry, canonical isoform): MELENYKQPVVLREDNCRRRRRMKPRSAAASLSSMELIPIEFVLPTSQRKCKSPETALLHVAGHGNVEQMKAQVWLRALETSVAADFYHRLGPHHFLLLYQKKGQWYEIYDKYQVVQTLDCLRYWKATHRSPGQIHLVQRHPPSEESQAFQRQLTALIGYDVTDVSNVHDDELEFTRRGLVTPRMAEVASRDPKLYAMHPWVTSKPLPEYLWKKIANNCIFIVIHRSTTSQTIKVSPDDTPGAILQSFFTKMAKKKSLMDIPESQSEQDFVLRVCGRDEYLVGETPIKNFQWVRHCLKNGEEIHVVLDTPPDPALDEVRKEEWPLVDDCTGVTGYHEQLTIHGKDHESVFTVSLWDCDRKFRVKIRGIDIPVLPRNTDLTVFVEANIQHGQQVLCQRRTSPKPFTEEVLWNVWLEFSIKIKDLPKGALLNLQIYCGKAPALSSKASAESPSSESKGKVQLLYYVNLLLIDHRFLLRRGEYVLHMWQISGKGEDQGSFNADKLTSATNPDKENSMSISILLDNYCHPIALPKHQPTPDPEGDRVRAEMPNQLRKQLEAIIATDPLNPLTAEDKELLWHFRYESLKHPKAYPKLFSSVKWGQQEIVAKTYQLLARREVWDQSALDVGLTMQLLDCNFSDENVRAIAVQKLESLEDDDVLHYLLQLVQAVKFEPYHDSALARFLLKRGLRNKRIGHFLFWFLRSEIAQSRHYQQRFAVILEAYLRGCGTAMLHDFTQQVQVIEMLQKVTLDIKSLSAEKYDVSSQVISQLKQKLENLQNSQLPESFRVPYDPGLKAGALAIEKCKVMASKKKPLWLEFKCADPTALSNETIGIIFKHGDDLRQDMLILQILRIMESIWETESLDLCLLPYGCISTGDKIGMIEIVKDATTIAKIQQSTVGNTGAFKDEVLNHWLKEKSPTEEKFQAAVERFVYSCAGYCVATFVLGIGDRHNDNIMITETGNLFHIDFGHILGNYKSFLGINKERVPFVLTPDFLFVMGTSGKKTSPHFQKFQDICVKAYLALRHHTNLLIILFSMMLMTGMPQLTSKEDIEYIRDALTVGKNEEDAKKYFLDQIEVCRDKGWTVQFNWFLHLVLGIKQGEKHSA

Structure (SMILES)	PI3K δ/PI3K γ IC50 (selectivity) [1]	RAJI δ/Raw264.7 γ IC50 (selectivity) [2]	further results
C[C@H](NC(=O)c1c(N)nn2cccnc12)c1cc2cccc(C#CC3CNC3)c2c(=O)n1-c1ccccc1 [Compound 74]	W (W = >1 to <10)	W (W = >1 to <10)	
C[C@H](NC(=O)c1c(N)nn2cccnc12)c1cc2cccc(C#Cc3ccn[nH]3)c2c(=O)n1-c1ccccc1 [Compound 43]	Y (Y = 50 to <850)	X (X = 10 to <50)	IC50 [3]: 5 to 10 µM; IC50 [4]: 5 to 10 µM; IC50 [5]: 5 to 10 µM; IC50 ([1]; read-out: PI3K γ IC50): 0.1 to 0.5 µM
C/C=C/c1cccc2cc([C@H](C)NC(=O)c3c(N)nn4cccnc34)n(-c3ccccc3)c(=O)c12 [Compound 70]	X (X = 10 to <50)		
C[C@H](NC(=O)c1c(N)nn2cccnc12)c1cc2cccc(C#CC=O)c2c(=O)n1-c1ccccc1 [Compound 36]	X (X = 10 to <50)	W (W = >1 to <10)	
CC(=O)N1CCC(C#Cc2cccc3cc([C@H](C)NC(=O)c4c(N)nn5cccnc45)n(-c4ccccc4)c(=O)c23)CC1 [Compound 82]	X (X = 10 to <50)	X (X = 10 to <50)	
C[C@H](NC(=O)c1c(N)nn2cccnc12)c1cc2cccc(C#Cc3cn[nH]c3)c2c(=O)n1-c1ccccc1 [Compound 80]	Y (Y = 50 to <850)	Y (Y = 50 to <850)	
CO[C@H]1C[C@@H]2CC[C@@H](C)[C@@](O)(O2)C(=O)C(=O)N2CCCC[C@H]2C(=O)O[C@H]([C@H](C)C[C@@H]2CC[C@@H](O)[C@H](OC)C2)CC(=O)[C@H](C)/C=C(\C)[C@@H](O)[C@@H](OC)C(=O)[C@H](C)C[C@H](C)/C=C/C=C/C=C/1C [rapamycin]			anti-CD3 mediated phosphorylation of Akt-S473 [6]: enhances; anti-CD3 mediated phosphorylation of S6 [6]: inhibits

More lines, main results first:

PI3K δ/PI3K γ IC50 (selectivity) [1]	RAJI δ/Raw264.7 γ IC50 (selectivity) [2]	Structure (SMILES)	further results
X (X = 10 to <50)	X (X = 10 to <50)	C[C@H](NC(=O)c1c(N)nn2cccnc12)c1cc2cccc(C#CC3CCN(S(C)(=O)=O)CC3)c2c(=O)n1-c1ccccc1 [Compound 83]	
W (W = >1 to <10)	X (X = 10 to <50)	C[C@H](NC(=O)c1c(N)nn2cccnc12)c1cc2cccc(NC(=O)c3cnn(C)c3)c2c(=O)n1-c1ccccc1 [Compound 90]	
X (X = 10 to <50)	Y (Y = 50 to <850)	Cc1c(C#Cc2cccc3nc([C@H](C)NC(=O)c4c(N)nn5cccnc45)n(-c4ccccc4)c(=O)c23)cnn1C [Compound 88, (S)-2-amino-N-(1-(5-((1,5-dimethyl-1H-pyrazol-4-yl)ethynyl)-4-oxo-3-phenyl-3,4-dihydroquinazolin-2-yl)ethyl)pyrazolo[1,5-a]pyrimidine-3-carboxamide]	
